The results in this text go back to patent publication US12534469B2 (CHILDREN'S HOSPITAL MEDICAL CENTER, priority 2020, dated 2026).

Where only a bound is given, the exact number is not on record here.

In this assay the target is T1, FLT3 (Homo sapiens, UniProt P36888).
T1 construct: purchased Reaction Biology (RBC HotSpot Kinase Assay)
T1 sequence (P36888 564-958 limits assumed): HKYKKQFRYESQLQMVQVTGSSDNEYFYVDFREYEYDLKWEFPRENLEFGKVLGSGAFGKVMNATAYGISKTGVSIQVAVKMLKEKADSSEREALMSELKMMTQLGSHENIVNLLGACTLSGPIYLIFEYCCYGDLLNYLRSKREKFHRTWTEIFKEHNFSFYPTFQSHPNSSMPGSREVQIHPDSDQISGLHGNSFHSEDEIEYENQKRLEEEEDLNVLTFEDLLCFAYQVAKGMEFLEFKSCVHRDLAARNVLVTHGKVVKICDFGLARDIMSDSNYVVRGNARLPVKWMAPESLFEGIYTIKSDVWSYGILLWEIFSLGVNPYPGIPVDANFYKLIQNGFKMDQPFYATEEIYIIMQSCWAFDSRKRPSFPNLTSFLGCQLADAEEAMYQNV
As to the kind of experiment: RBC HotSpot Kinase Assay, FLT3. It counts as biochemical. The method, boiled down: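 Radiometric filter-binding (HotSpot) activity assay on isolated recombinant kinase, possibly truncated or catalytic domain only, in 20 mM Hepes pH 7.5, 10 mM MgCl2, 1 mM EGTA, 2 mM DTT, 1% DMSO. Compound preincubated 20 min with kinase and substrate, then ^33P-ATP added. Reaction 2 h at room temperature, read by P81 filter binding.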
Compound `COc1cc2ncc(-c3cccc(N[C@H]4CNC[C@@H]4C(F)(F)F)n3)n2nc1C1CC1` [Compound 99, 6-(6-cyclopropyl-7-methoxyimidazo[1,2-b]pyridazin-3-yl)-N-((3R,4S)-4-(trifluoromethyl)pyrrolidin-3-yl)pyridin-2-amine] yielded an IC50 of 0.6 nM. To `COc1cc2ncc(-c3nc(N[C@@H]4CCCNC4)c(F)cc3F)n2nc1C1CC1` [Compound 106, (R)-6-(6-cyclopropyl-7-methoxyimidazo[1,2-b]pyridazin-3-yl)-3,5-difluoro-N-(piperidin-3-yl)pyridin-2-amine] belongs below 0.5 nM.

Take `COc1cc2ncc(-c3nc(N[C@H]4CNC[C@@H]4F)c(F)cc3F)n2nc1C1CC1` [Compound 107, 6-(6-cyclopropyl-7-methoxyimidazo[1,2-b]pyridazin-3-yl)-3,5-difluoro-N-((3S,4S)-4-fluoropyrrolidin-3-yl)pyridin-2-amine]: the IC50 is below 0.5 nM.

`F[C@H]1CNC[C@@H]1Nc1cccc(-c2cnc3ccc(-c4cnn5ccccc45)nn23)n1` [Compound 9, N-((3S,4S)-4-fluoropyrrolidin-3-yl)-6-(6-(pyrazolo[1,5-a]pyridin-3-yl)imidazo[1,2-b]pyridazin-3-yl)pyridin-2-amine] gave an IC50 below 0.5 nM. As to `c1cc(N[C@@H]2CCCNC2)nc(-c2cnc3ccc(-c4cnn5ccccc45)nn23)c1` [Compound 19, (R)-N-(piperidin-3-yl)-6-(6-(pyrazolo[1,5-a]pyridin-3-yl)imidazo[1,2-b]pyridazin-3-yl)pyridin-2-amine], the IC50 is below 0.5 nM. To `COc1cc2ncc(-c3cccc(N[C@H]4CNC[C@@H]4F)n3)n2nc1C(C)(O)C(F)(F)F` (single isomer, unassigned; fast-eluting) [Compound 133] belongs below 0.5 nM; to `COc1cc2ncc(-c3cccc(N[C@@H]4CCNC4)n3)n2nc1C1CC1` [Compound 97, (R)-6-(6-cyclopropyl-7-methoxyimidazo[1,2-b]pyridazin-3-yl)-N-(pyrrolidin-3-yl)pyridin-2-amine], 0.6 nM; to `COc1cc2ncc(-c3nc(N[C@H]4CNCC[C@@H]4F)c(F)cc3F)n2nc1C(C)(C)O` [Compound 128, 2-(3-(3,5-difluoro-6-(((3S,4S)-4-fluoropiperidin-3-yl)amino)pyridin-2-yl)-7-methoxyimidazo[1,2-b]pyridazin-6-yl)propan-2-ol], below 0.5 nM. To `COc1cc2ncc(-c3cccc(N[C@H]4CNCC[C@@H]4F)n3)n2nc1C1CC1` [Compound 102, 6-(6-cyclopropyl-7-methoxyimidazo[1,2-b]pyridazin-3-yl)-N-((3S,4S)-4-fluoropiperidin-3-yl)pyridin-2-amine] belongs below 0.5 nM. To `COc1cc2ncc(-c3nc(N[C@H]4CNC[C@@H]4F)c(F)cc3F)n2nc1C(C)(C)O` [Compound 126, 2-(3-(3,5-difluoro-6-(((3S,4S)-4-fluoropyrrolidin-3-yl)amino)pyridin-2-yl)-7-methoxyimidazo[1,2-b]pyridazin-6-yl)propan-2-ol] belongs below 0.5 nM; to `COc1cc2ncc(-c3cccc(N[C@H]4CNC[C@@H]4F)n3)n2nc1C1CC1` [Compound 96, 6-(6-cyclopropyl-7-methoxyimidazo[1,2-b]pyridazin-3-yl)-N-((3S,4S)-4-fluoropyrrolidin-3-yl)pyridin-2-amine], 0.6 nM; to `COc1cc2ncc(-c3nc(N[C@H]4CNCC[C@@H]4F)c(F)cc3F)n2nc1C1CC1` [Compound 108, 6-(6-cyclopropyl-7-methoxyimidazo[1,2-b]pyridazin-3-yl)-3,5-difluoro-N-((3S,4S)-4-fluoropiperidin-3-yl)pyridin-2-amine], below 0.5 nM.

`COc1cc2ncc(-c3nc(N[C@@H]4CCCNC4)c(F)cc3F)n2nc1C(C)(C)O` [Compound 127, (R)-2-(3-(3,5-difluoro-6-(piperidin-3-ylamino)pyridin-2-yl)-7-methoxyimidazo[1,2-b]pyridazin-6-yl)propan-2-ol] showed an IC50 below 0.5 nM.

What is called IC50 is the midpoint of a concentration-inhibition curve. Lower therefore signals inhibition by little substance.
